From US7408039B2, “Kits for treatment of hematologic disorders” (The General Hospital Corporation, priority 1997, dated 2008)

Assays:
[1] = cited from earlier work
[2] = test system: refractory non-Hodgkin's lymphoma; details: five patients; Cy 50 mg/kg daily x4
Excerpt: Median patient age was 30 (range 20-45) years. All patients had disease progression during salvage chemotherapy or radiation therapy.

O=P1(N(CCCl)CCCl)NCCCO1 (centres unmarked) [cyclophosphamide]
post-chemotherapy hematopoietic recovery ([1]; 200 mg/kg, expected, following drug administration): approximately 2 weeks
patients developing diffuse maculopapular rash ([1]; 24-72 hours following cyclophosphamide): 10-20%
patients with some hematuria ([1]; at this dose level (50 mg/kg x 4)): Approximately 50%
incidence of hemorrhagic cystitis ([1]; cyclophosphamide 50 mg/kg on days -6 to -3): 20%
myeloablation ([1]; dose of 200 mg/kg): not myeloablative
time for rash to resolve ([1]; in vivo): 24 to 48 h
total dose at which fatal cardiac failure due to hemorrhagic necrosis can occur ([1]; total dose (7.6 grams/m^2)): ≥ 200 mg/kg
patients with reversible Cy cardiotoxicity [2]: 1 n
